Measured values reported in ChEMBL document CHEMBL1201862, “PubChem BioAssay data set” (2004).
Activity calls are given as the source filed them.

Tests used:
[1] = molecular target: T1, Corticotropin-releasing factor receptor 2/Corticotropin-releasing factor-binding protein (Homo sapiens, UniProt P24387+Q13324); assay: Dose Response confirmation of uHTS hits for small molecule antagonists of the CRF-binding protein and CRF-R2 receptor complex.; assay type: functional; conditions: read-out: IC50_Mean
T1 sequence (Q13324 whole entry): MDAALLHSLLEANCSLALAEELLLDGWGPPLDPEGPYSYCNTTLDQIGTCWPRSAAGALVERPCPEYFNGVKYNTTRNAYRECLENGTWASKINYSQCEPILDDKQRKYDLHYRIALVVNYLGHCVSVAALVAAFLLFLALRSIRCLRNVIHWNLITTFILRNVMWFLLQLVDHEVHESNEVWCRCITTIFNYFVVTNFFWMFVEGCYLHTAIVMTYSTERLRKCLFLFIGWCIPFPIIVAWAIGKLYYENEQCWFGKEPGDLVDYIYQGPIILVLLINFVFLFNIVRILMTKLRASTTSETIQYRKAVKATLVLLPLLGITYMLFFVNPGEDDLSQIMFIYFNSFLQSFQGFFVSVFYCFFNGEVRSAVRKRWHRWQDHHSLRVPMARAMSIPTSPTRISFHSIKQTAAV
T1 sequence (P24387 whole entry): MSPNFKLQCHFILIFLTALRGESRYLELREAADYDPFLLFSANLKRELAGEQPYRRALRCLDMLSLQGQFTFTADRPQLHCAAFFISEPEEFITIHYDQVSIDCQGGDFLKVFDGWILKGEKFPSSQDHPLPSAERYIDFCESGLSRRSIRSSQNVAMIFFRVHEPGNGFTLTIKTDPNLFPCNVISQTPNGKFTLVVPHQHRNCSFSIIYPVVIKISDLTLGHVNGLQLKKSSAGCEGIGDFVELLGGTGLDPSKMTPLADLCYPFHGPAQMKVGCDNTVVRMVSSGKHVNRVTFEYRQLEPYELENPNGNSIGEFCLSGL

[2] = molecular target: T1, Corticotropin-releasing factor receptor 2/Corticotropin-releasing factor-binding protein; assay: activators of CRF receptor 2 with binding protein – uHTS hits, confirmation (AID 602473); assay type: functional; conditions: read-out: EC50_Mean
[3] = Luminescence Cell-Based Dose Confirmation HTS to Identify Inhibitors of Platelet Dense Granule Release. [Related pubchem assays: 1663 (Primary HTS), 1678 (Summary of Project)]; assay type: functional
[4] = molecular target: Luciferin 4-monooxygenase (Photinus pyralis, UniProt P08659); assay: firefly luciferase enzyme inhibitors, dose response, biochemical, luminescence (AID 1891)
Luciferin 4-monooxygenase, sequence (P08659 whole entry): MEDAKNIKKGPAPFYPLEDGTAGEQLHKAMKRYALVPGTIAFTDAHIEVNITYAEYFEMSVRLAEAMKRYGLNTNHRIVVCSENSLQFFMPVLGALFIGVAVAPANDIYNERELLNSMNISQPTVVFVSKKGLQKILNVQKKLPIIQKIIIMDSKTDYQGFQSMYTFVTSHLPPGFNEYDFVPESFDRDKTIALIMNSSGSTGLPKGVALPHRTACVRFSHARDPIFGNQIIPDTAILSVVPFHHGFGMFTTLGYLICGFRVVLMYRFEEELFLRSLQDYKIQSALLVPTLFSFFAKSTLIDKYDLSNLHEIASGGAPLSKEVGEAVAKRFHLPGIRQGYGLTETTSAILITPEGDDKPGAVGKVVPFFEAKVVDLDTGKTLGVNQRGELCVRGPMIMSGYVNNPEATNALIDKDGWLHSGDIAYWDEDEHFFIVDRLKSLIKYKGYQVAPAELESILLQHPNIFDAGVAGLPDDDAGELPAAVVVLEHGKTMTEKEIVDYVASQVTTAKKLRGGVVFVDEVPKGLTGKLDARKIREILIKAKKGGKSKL

Cytochrome P450 2C19 = Cytochrome P450 2C19 (Homo sapiens, UniProt P33261); assay: Cytochrome panel assay with activity outcomes. Panel member name: p450-cyp2c19 Compounds with AC50 equal or less than 10 uM are considered active; assay type: functional
Cytochrome P450 2C19, sequence (P33261 whole entry): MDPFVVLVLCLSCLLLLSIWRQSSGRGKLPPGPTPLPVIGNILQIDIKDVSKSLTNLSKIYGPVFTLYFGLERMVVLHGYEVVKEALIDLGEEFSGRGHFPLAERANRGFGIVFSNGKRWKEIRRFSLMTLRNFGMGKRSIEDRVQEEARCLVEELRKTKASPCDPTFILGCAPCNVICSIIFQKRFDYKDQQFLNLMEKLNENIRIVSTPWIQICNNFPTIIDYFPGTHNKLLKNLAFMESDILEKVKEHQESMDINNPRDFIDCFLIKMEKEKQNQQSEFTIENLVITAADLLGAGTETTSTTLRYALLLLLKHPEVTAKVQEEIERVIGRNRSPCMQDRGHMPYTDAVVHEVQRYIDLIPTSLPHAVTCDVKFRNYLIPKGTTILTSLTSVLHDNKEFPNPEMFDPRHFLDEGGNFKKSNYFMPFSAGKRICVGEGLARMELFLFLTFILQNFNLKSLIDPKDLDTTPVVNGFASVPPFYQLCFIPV

[5] = tested on: Streptococcus sp. 'group A'; assay: growth inhibition of control SK(-) GAS strain, dose response, counter-screen for streptokinase expression inhibitor project, luminescence, kanamycin, BacTiterGlo, confirmation (AID 1900); assay type: functional, organism-based
Streptococcus = assay: Group A Streptococcus viability loss, dose response, counter-screen for streptokinase expression inhibitor project, luminescence, BacTiterGlo (AID 1915); assay type: functional, organism-based;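 also: potency for reduction of bacterial viability or growth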
Streptokinase A = molecular target: T2, Streptokinase A (Streptococcus pyogenes serotype M1, UniProt P10520); assay: S. pyogenes streptokinase expression inhibitors, potency, dose response, plasminogen activation absorbance, OD405 (AID 1914); assay type: functional, Streptococcus pyogenes M1 GAS;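 also: secreted streptokinase activity via plasminogen activation per viability signal from cell pellet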
T2 sequence (P10520 whole entry): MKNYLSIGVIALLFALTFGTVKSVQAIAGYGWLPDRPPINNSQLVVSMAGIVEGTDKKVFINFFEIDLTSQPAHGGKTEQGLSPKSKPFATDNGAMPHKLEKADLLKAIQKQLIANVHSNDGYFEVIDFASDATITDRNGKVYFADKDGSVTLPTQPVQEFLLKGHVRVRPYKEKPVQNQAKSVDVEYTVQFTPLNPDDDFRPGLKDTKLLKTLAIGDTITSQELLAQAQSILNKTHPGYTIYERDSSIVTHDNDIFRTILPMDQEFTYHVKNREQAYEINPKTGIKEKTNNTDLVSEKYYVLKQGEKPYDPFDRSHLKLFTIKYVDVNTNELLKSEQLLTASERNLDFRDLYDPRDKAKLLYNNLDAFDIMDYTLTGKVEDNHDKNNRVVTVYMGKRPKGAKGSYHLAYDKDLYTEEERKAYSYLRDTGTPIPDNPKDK

Cytochrome P450 1A2 = molecular target: T3, Cytochrome P450 1A2 (Homo sapiens, UniProt P05177);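 also: PubChem cytochrome P450 panel assay, CYP1A2 panel member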
T3 sequence (P05177 whole entry): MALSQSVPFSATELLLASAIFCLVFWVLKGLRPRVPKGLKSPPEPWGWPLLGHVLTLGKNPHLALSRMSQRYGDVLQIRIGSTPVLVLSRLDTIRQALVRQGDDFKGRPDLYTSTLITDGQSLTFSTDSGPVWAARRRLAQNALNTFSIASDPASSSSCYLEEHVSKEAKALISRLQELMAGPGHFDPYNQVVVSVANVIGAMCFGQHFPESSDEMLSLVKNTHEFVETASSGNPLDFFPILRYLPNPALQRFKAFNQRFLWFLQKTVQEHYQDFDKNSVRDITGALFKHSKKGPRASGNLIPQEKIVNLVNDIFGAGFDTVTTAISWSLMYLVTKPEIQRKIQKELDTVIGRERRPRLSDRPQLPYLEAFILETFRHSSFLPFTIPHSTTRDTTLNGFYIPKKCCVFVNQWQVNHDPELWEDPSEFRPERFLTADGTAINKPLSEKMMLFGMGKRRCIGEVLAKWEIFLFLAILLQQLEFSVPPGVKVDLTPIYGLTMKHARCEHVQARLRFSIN

## O=C(CCOc1ccccc1)Nc1ccc([N+](=O)[O-])cc1
[1]
  IC50: > 47.1 µM (inactive)
[2]
  EC50: > 53 µM (inactive)

## Cc1c(C(=O)N2CCCC2)sc(NC(=O)c2ccc(Cl)cc2)c1C#N
[3]
  EC50: > 112 µM (not active)
[4]
  EC50: > 112 µM (not active)

## CC(C)S(=O)(=O)c1csc(C(=O)Nc2ccc(F)cc2)c1N
[3]
  EC50: < 0.701 µM (active)
[4]
  EC50: 2.33 µM (active)

## NC(=O)NC(=O)COC(=O)c1ccc2c(c1)C(=O)N(Cc1ccccc1)C2=O
[3]
  EC50: > 112 µM (not active)
[4]
  EC50: > 112 µM (not active)

## CCCCCCCCCOC(=O)C[n+]1csc(CCO)c1C
[1]
  IC50: > 47.1 µM (inactive)
[2]
  EC50: > 53 µM (inactive)

## C=CCc1cc(/C=C2\C(=N)N3N=C(CC(=O)N4CCOCC4)SC3=NC2=O)cc(OC)c1O
[2]
  EC50: 6.76 µM (active)

## Cc1cc(C)c2c(SCc3ccc(Cl)cc3Cl)nc(N)nc2n1
Cytochrome P450 2C19; read-out: AC50
  AC50: 1 µM (inconclusive)

## O=C1CSC(c2cn(-c3ccccc3)nc2-c2ccc3c(c2)OCCO3)N1CCN1CCOCC1 (stereo not given)
[3]
  EC50: > 112 µM (not active)
[4]
  EC50: > 112 µM (not active)

## S=C(NCc1ccc(Cl)c(Cl)c1)Nc1ccc2c(c1)OCO2
[1]
  IC50: > 47.1 µM (inactive)
[2]
  EC50: > 53 µM (inactive)

## CCOCc1cc(CN2CCCC(CNC(=O)c3ccco3)C2)ccc1OC (stereo not given)
[1]
  IC50: > 47.1 µM (inactive)
[2]
  EC50: > 53 µM (inactive)

## Cc1ccc(SC(C)C(=O)Nc2ccccc2C(=O)N2CCOCC2)cc1 (stereo not given)
[3]
  EC50: > 112 µM (not active)
[4]
  EC50: > 112 µM (not active)

## CCOC(=O)CCCNC(=O)c1cncc(Br)c1
Cytochrome P450 2C19; read-out: AC50
  AC50: 39.8 µM (inconclusive)

## COc1ccc2c(c1)/C(=C/c1cc(OC)c(OC)c(OC)c1)C(=O)N2
[1]
  IC50: > 47.1 µM (inactive)
[2]
  EC50: > 53 µM (inactive)

## COc1ccc(N2C(=O)c3cccc4cccc(c34)C2=O)cc1
[2]
  EC50: > 53 µM (inactive)

## CCN1C(=O)C(=O)N(Cc2ccc(OC)c(F)c2)C1=O
[1]
  IC50: > 47.1 µM (inactive)
[2]
  EC50: > 53 µM (inactive)

## CSCCC(NC(=O)c1cccc(C)c1)C(=O)NNC(=O)c1cccs1 (stereo not given)
[1]
  IC50: > 47.1 µM (inactive)
[2]
  EC50: > 53 µM (inactive)

## COc1ccc(-c2ccc(CN3C(C)C(=O)N(Cc4cn(Cc5ccco5)nn4)CCS3(=O)=O)cc2)cc1 (stereo not given)
[1]
  IC50: > 47.1 µM (inactive)
[2]
  EC50: > 53 µM (inactive)

## CCNC(=O)C1OC(n2cnc3c(N)ncnc32)C(O)C1O (stereo not given)
[3]
  EC50: < 0.088 µM (active)

## O=C(NC(Cc1c[nH]c2ccccc12)C(=O)N/N=C/c1cccc2ccccc12)c1cccs1 (stereo not given)
[5]
  EC50: 5.65 µM (active)
Streptococcus
  EC50: 39.5 µM (active)
Streptokinase A
  EC50: > 150 µM (not active)

## CC1C/C(=N\NC(=S)NCc2ccccc2)CC(C)(C)C1 (stereo not given)
[5]
  EC50: 6.08 µM (active)
Streptococcus
  EC50: 10.4 µM (active)
Streptokinase A
  EC50: > 150 µM (not active)

## N[C@@]1(C(=O)O)CN[C@H](C(=O)O)C1
Cytochrome P450 1A2
  AC50: 31.6 µM (inconclusive)

## N[C@@H](CCCCP(=O)(O)O)C(=O)O
Cytochrome P450 1A2
  AC50: 31.6 µM (inconclusive)

## O=[N+]([O-])c1cc([As](=O)(O)O)ccc1O [ROXARSONE]
Cytochrome P450 2C19
  AC50: inconclusive
